From PubChem BioAssay AID226 (DTP/NCI, 2004)
Where “and” joins values, the source holds several entries; their conditions need not be identical. Identical values can stand only once. Toxic doses and inconclusive results are not listed. The calls were made as follows: active = survival T/C of 150% or more; inactive = T/C below 125% in these data.

System: B6C3F1 mice, intracerebral ependymoblastoma, median survival T/C
Assay: NCI In Vivo Anticancer Drug Screen. Data for tumor model Ependymoblastoma (intracerebral) in B6C3F1 mice
Settings: endpoint: median survival time, higher = longer survival
Experimental: The antitumor activity of compounds was measured in mice bearing transplantable tumors. Survival or tumor size were measured and the results are expressed as the measurement made in the treated group (T) divided by the measurement made in the vehicle treated control group (C). The tumor model used in this assay is Ependymoblastoma (intracerebral) in B6C3F1 mice

[1] = dose: 40.0 mg/kg/injection, schedule: Q01DX001 (ip), vehicle: saline
[2] = dose: 80.0 mg/kg/injection, schedule: Q01DX001 (ip), vehicle: saline
[3] = dose: 160.0 mg/kg/injection, schedule: Q01DX001 (ip), vehicle: saline

Measured: T/C

COC(=O)[C@@]12OC[C@]34[C@H]([C@@H](O)[C@@H]1O)[C@@]1(C)CC(=O)C(O)=C(C)[C@@H]1C[C@H]3OC(=O)[C@H](OC(=O)/C=C(\C)C(C)C)[C@@H]24
inactive: dose: 0.03 mg/kg/injection, schedule: Q01DX005 (ip), vehicle: saline + alcohol 100 % of control and 101 % of control | dose: 0.06 mg/kg/injection, schedule: Q01DX005 (ip), vehicle: saline + alcohol 92 % of control and 97 % of control | dose: 0.12 mg/kg/injection, schedule: Q01DX005 (ip), vehicle: saline + alcohol 98 % of control and 101 % of control | dose: 0.12 mg/kg/injection, schedule: Q01DX005 (oral), vehicle: saline 100 % of control | dose: 0.12 mg/kg/injection, schedule: Q12HX006 (ip), vehicle: saline 109 % of control | dose: 0.25 mg/kg/injection, schedule: Q01DX005 (ip), vehicle: saline + alcohol 95 % of control and 96 % of control | dose: 0.25 mg/kg/injection, schedule: Q12HX002 (ip), vehicle: saline 107 % of control | dose: 0.25 mg/kg/injection, schedule: Q12HX006 (ip), vehicle: saline 116 % of control | dose: 0.5 mg/kg/injection, schedule: Q01DX001 (ip), vehicle: saline 111 % of control and 115 % of control and 116 % of control | dose: 0.5 mg/kg/injection, schedule: Q01DX005 (ip), vehicle: saline + alcohol 92 % of control and 95 % of control | dose: 0.5 mg/kg/injection, schedule: Q01DX005 (oral), vehicle: saline 101 % of control | dose: 0.5 mg/kg/injection, schedule: Q12HX002 (ip), vehicle: saline 107 % of control | dose: 0.5 mg/kg/injection, schedule: Q12HX006 (ip), vehicle: saline 116 % of control | dose: 1.0 mg/kg/injection, schedule: Q01DX001 (ip), vehicle: saline 101 % of control and 110 % of control and 111 % of control | dose: 1.0 mg/kg/injection, schedule: Q01DX005 (ip), vehicle: saline + alcohol 95 % of control and 100 % of control | dose: 1.0 mg/kg/injection, schedule: Q01DX005 (oral), vehicle: saline 100 % of control | dose: 1.0 mg/kg/injection, schedule: Q12HX002 (ip), vehicle: saline 102 % of control | dose: 1.0 mg/kg/injection, schedule: Q12HX006 (ip), vehicle: saline 119 % of control | dose: 2.0 mg/kg/injection, schedule: Q01DX001 (ip), vehicle: saline 119 % of control and 123 % of control | dose: 2.0 mg/kg/injection, schedule: Q01DX001 (oral), vehicle: saline 101 % of control and 109 % of control and 115 % of control | dose: 2.0 mg/kg/injection, schedule: Q01DX005 (ip), vehicle: saline + alcohol 98 % of control | dose: 2.0 mg/kg/injection, schedule: Q01DX005 (oral), vehicle: saline 105 % of control | dose: 2.0 mg/kg/injection, schedule: Q12HX002 (ip), vehicle: saline 110 % of control | dose: 4.0 mg/kg/injection, schedule: Q01DX001 (ip), vehicle: saline 115 % of control | dose: 4.0 mg/kg/injection, schedule: Q01DX001 (oral), vehicle: saline 95 % of control and 101 % of control and 123 % of control | dose: 4.0 mg/kg/injection, schedule: Q12HX002 (ip), vehicle: saline 101 % of control | dose: 8.0 mg/kg/injection, schedule: Q01DX001 (oral), vehicle: saline 95 % of control and 96 % of control and 108 % of control | dose: 16.0 mg/kg/injection, schedule: Q01DX001 (oral), vehicle: saline 105 % of control

CN=S(=O)(OCCCCCOS(=O)(=NC)c1ccccc1)c1ccccc1 (configuration not stated)
inactive: dose: 6.25 mg/kg/injection, schedule: Q01DX005 (ip), vehicle: saline with Tween-80 110 % of control | dose: 12.5 mg/kg/injection, schedule: Q01DX005 (ip), vehicle: saline with Tween-80 100 % of control | dose: 25.0 mg/kg/injection, schedule: Q01DX005 (ip), vehicle: saline with Tween-80 95 % of control and 106 % of control | dose: 50.0 mg/kg/injection, schedule: Q01DX005 (ip), vehicle: saline with Tween-80 111 % of control and 112 % of control | dose: 100.0 mg/kg/injection, schedule: Q01DX005 (ip), vehicle: saline with Tween-80 101 % of control and 123 % of control

C1CN(P2(N3CC3)=NP(N3CC3)(N3CC3)=NP(N3CC3)(N3CC3)=N2)CCO1 (configuration not stated)
inactive: dose: 20.0 mg/kg/injection, schedule: Q01DX001 (ip), vehicle: saline 101 % of control | [1] 102 % of control | [2] 96 % of control

O=P1(NCCCl)OCCCN1CCCl (configuration not stated)
inactive: dose: 25.0 mg/kg/injection, schedule: Q01DX001 (ip), vehicle: water 101 % of control | [1] 102 % of control | dose: 50.0 mg/kg/injection, schedule: Q01DX001 (ip), vehicle: water 104 % of control and 105 % of control | [2] 101 % of control | dose: 100.0 mg/kg/injection, schedule: Q01DX001 (ip), vehicle: water 101 % of control and 113 % of control | [3] 102 % of control | dose: 200.0 mg/kg/injection, schedule: Q01DX001 (ip), vehicle: water 114 % of control and 124 % of control | dose: 320.0 mg/kg/injection, schedule: Q01DX001 (ip), vehicle: saline 105 % of control | dose: 400.0 mg/kg/injection, schedule: Q01DX001 (ip), vehicle: water 119 % of control | dose: 640.0 mg/kg/injection, schedule: Q01DX001 (ip), vehicle: saline 118 % of control

O=P1(N(CCCl)CCCl)NC(OO)CCO1 (configuration not stated)
inactive: [1] 102 % of control | [2] 108 % of control | [3] 113 % of control

c1ccc([C@H]2CN3CCSC3=N2)cc1
inactive: dose: 10.0 mg/kg/injection, schedule: Q01DX005 (ip), vehicle: saline 114 % of control | dose: 20.0 mg/kg/injection, schedule: Q01DX005 (ip), vehicle: saline 107 % of control | dose: 40.0 mg/kg/injection, schedule: Q01DX005 (ip), vehicle: saline 110 % of control

CCOC(=O)CNC(=O)CCCCSc1ncnc2nc[nH]c12
inactive: dose: 4.0 mg/kg/injection, schedule: Q01DX005 (ip), vehicle: saline 106 % of control | dose: 16.0 mg/kg/injection, schedule: Q01DX001 (oral), vehicle: Klucel (hydroxypropylcellulose) (HPC) 95 % of control | dose: 16.0 mg/kg/injection, schedule: Q01DX005 (ip), vehicle: Klucel (hydroxypropylcellulose) (HPC) 100 % of control and 105 % of control | dose: 16.0 mg/kg/injection, schedule: Q01DX005 (ip), vehicle: saline 95 % of control and 101 % of control | dose: 32.0 mg/kg/injection, schedule: Q01DX005 (ip), vehicle: Klucel (hydroxypropylcellulose) (HPC) 96 % of control | dose: 64.0 mg/kg/injection, schedule: Q01DX001 (oral), vehicle: Klucel (hydroxypropylcellulose) (HPC) 92 % of control | dose: 64.0 mg/kg/injection, schedule: Q01DX005 (ip), vehicle: Klucel (hydroxypropylcellulose) (HPC) 95 % of control and 104 % of control and 109 % of control | dose: 64.0 mg/kg/injection, schedule: Q01DX005 (ip), vehicle: saline 96 % of control and 109 % of control | dose: 128.0 mg/kg/injection, schedule: Q01DX005 (ip), vehicle: Klucel (hydroxypropylcellulose) (HPC) 98 % of control | dose: 256.0 mg/kg/injection, schedule: Q01DX001 (oral), vehicle: Klucel (hydroxypropylcellulose) (HPC) 105 % of control | dose: 256.0 mg/kg/injection, schedule: Q01DX005 (ip), vehicle: Klucel (hydroxypropylcellulose) (HPC) 102 % of control and 108 % of control | dose: 256.0 mg/kg/injection, schedule: Q01DX005 (ip), vehicle: saline 105 % of control and 112 % of control | dose: 512.0 mg/kg/injection, schedule: Q01DX005 (ip), vehicle: Klucel (hydroxypropylcellulose) (HPC) 96 % of control | dose: 1024.0 mg/kg/injection, schedule: Q01DX005 (ip), vehicle: Klucel (hydroxypropylcellulose) (HPC) 100 % of control and 119 % of control and 121 % of control | dose: 1024.0 mg/kg/injection, schedule: Q01DX005 (ip), vehicle: saline 111 % of control and 124 % of control
